# Measured values taken from patent US10543202B2 (University of Saskatchewan, priority 2017, dated 2020).
# Entries after “also recorded” stand apart in the source; their conditions may differ.
# Experiments:
# Format in all cases: physicochemical
# [1] = Thin film of cream exposed to UVA light (photostability); details: for effect of photostabilizer in nifedipine emulsion on stability of nifedipine to UVA light: photostabilizer incorporated at varying concentrations up to 3% w/w in nifedipine 2% w/w cream
# Text: (§1) Light Exposure: A UVA lamp was mounted 8.5 inches above a lab bench surface and the flux set to 740-750 μW/cm^2. This level of flux is roughly equivalent to a bright sunny day in mid-summer. […] The lamp apparatus was placed inside an enclosure with an access door, to prevent ambient light entering and for worker safety. For samples exposed to “ambient light”, these were placed on a laboratory bench where standard fluorescent lighting was used. […] To prevent drying, the samples were covered with Saran Wrap®, a plastic film that was determined to be UVA-transparent. After the allotted exposure time the cream was scraped off the slide for extraction with methanol. Samples which were exposed while in solution and not incorporated in a cream were dissolved in methanol as a 20 mL solution in a 100 mL beaker.
# The sample was warmed in a water bath to 85° C. to melt lipids, followed by addition of 5 mL of methanol and vortex mixing. The samples were centrifuged at 14,000×g for 5 minutes and the supernatant retained for analysis.
# Values reported represent mean±SD for triplicate measurements.
# [2] = Emulsion phase stability analysis (LUMiSizer photocentrifuge, instability index); details: photocentrifuge 42° C., 12 hrs, versus emulsion without photostabilizers
# Protocol: This allows for an approximation of the relative stability to phase separation of emulsions that differ in the type or percentage of photoprotectant and for confirming batch-to-batch consistency in stability against phase separation.^35 For each sample type, triplicate samples of 2 mL were loaded into photocentrifuge acrylic cuvettes. The samples were centrifuged at 42° C.×12 hrs. Phase separation was detected as an increase in light transmission at the top of the sample, which is interpreted as an “instability index” reflecting the rate of change of light transmission.
# [3] = Mass spectrometry analysis of nifedipine and its photodegradants in UVA-exposed creams
# Text: as §1
difference in nifedipine concentration between preparations with and without rutin ([1]; 2 h UVA exposure),effectiveness as photoprotectant for nifedipine in O/W emulsion ([1]; concentrations up to 2% (w/w)),Compound,effect of photostabilizer in nifedipine emulsion on stability of nifedipine to UVA light [1],effect of photostabilizer on instability index / phase stability of nifedipine emulsion [2],alternative nifedipine degradation pathways in presence of photostabilizer [3],"reduction of UVA-induced degradation of nifedipine ([1]; rutin 0.5-3% (w/w), 20 mg thin film, over 3 hrs)",effect of quercetin on photostability of nifedipine cream after UVA exposure ([1]; quercetin 0.5% w/w alone in nifedipine cream)
–,–,"COc1ccc(C(=O)CC(=O)c2ccc(C(C)(C)C)cc2)cc1 [BMDBM, 1-(4-methoxyphenyl)-3-[4-(2-methyl-2-propanyl)phenyl]-1,3-propanedione]",moderately effective,reduced the instability; also recorded: increased the stability of the nifedipine emulsion,no alternative degradation pathways identified,–,–
No significant difference,ineffective,"C[C@@H]1O[C@@H](OC[C@H]2O[C@@H](Oc3c(-c4ccc(O)c(O)c4)oc4cc(O)cc(O)c4c3=O)[C@H](O)[C@@H](O)[C@@H]2O)[C@H](O)[C@H](O)[C@H]1O [rutin, 2-(3,4-dihydroxyphenyl)-5,7-dihydroxy-4-oxo-4H-chromen-3-yl 6-O-(6-deoxy-α-L-mannopyranosyl)-β-D-glucopyranoside]",not protected from photodegradation; also recorded: not effective,–,no alternative degradation pathways identified,did not significantly reduce UVA-induced degradation of nifedipine,–
–,–,"O=c1c(O)c(-c2ccc(O)c(O)c2)oc2cc(O)cc(O)c12 [quercetin, 2-(3,4-dihydroxyphenyl)-3,5,7-trihydroxy-4H-chromen-4-one]",increased the stability of nifedipine to UVA light,reduced the instability; also recorded: increased the stability of the nifedipine emulsion,no alternative degradation pathways identified,–,moderately effective; also recorded: photostability was improved
